Measured values from patent US11160788B2, “Caspase-1 inhibition and uses thereof for prevention and treatment of neurological conditions” (priority 2016, dated 2021).
“Also recorded” adds a separate entry of the source.

Assays:
Assay type in all cases: in vivo, mouse
J20 mice [1] = test: GFAP astrogliosis, treated symptomatic J20 mice brains; settings: 50 mg/kg
Source text: FIG. 18: ELISA measures of cytokines in vehicle-treated WT and J20 mice and VX-765-treated J20 mice. (a) Plasma levels of II-1β in mice after T3. (b) Cytokine levels in vehicle-treated WT and J20 and in VX-765-treated J20 brain hippocampi and cortex. (c) GFAP immunostaining density in vehicle-treated WT (n=6) and J20 (n=5) and in VX-765-treated J20 (n=4) brain hippocampi (F(2,12)=5.234, p=0.0232, ANOVA, Dunnett's post-hoc compared to WT+Vehicle, *p<0.05) and cortex. (d) Western blots and quantitative analyses of GFAP in vehicle-treated WT and J20 and in VX-765-treated J20 brain hippocampi and cortex.
To assess AD-like pathology, immunohistochemical analyses were performed to detect amyloid deposition (anti-AβF25276)^5,6, microglial (Iba1) activation^7, astrogliosis (GFAP), synaptophysin protein levels on coronal brain sections. Multiplex MSD ELISA was used to assess Aβ levels and 38,40, and 42 subtypes, and II-1β brain levels. RT-PCR was used to assess levels of human APP^Sw/Ind.

J20 mice [2] = test: Novel object recognition (NOR), treatment of symptomatic J20 mice; settings: for NOR behavior: 10 mg/kg; for NOR discrimination index: 25 mg/kg; for NOR deficit: 50 mg/kg IP
Source text: FIG. 8: VX-765 treatment restores cognitive function in J20 mice. (a) Experimental paradigm. Intraperitoneal vehicle-injected wild type (WT+Vehicle; n=13) and J20 mice (J20+Vehicle: n=9), and VX-765-injected J20 mice (J20+VX-765: n=9) mice were behaviourally assessed at 5 different time-points: baseline before treatment (baseline untreated J20 were grouped together; n=18), after 3 IP injections/wk of VX-765 or vehicle (Treatment 1), after 6 additional injections over 2 weeks (Treatment 2), after 4-week Washout period, and after an additional 3 injections in one week (Treatment 3). Mice were sacrificed at 8 months of age after Treatment 3 (b) NOR Discrimination index (Treatment main effect, F(2,20)=85.8, p<0.0001; Time main effect, F(4,80)=4.188, p=0.0039; Treatment×Time interaction, F(8,80)=[…], two-way repeated-measures ANOVA, Dunnett's post-hoc compared to J20+Vehicle). (c) Distance traveled during Open Field task. Data analyzed by repeated measures two-way ANOVA (Treatment main effect, F(2,19)=11.47, p=0.0005; Treatment×Time interaction, F(8,76)=5.69, p<0.0001, two-way repeated-measures ANOVA, Dunnett's post-hoc compared to J20+Vehicle). (d-i) Barnes maze analysis. Learning acquisition (d,g), probe test primary latency and errors (e,h), and target hole preference (f,i); # of pokes of each hole labelled +1 to +9 to the right or −1 to −9 to the left of the target hole during the probe) after Treatment 2 (d-f) and Washout (g-i). Probe tests were analyzed (Treatment 2 primary latency, F(2,52)=5.879, p=0.0050; Treatment 2 primary errors, F(2,52)=9.998, p=0.0002; Washout primary latency, F(2,22)=4.076, p=0.0312; Washout primary errors, F(2,22)=10.84, p=0.0005, ANOVA, Tukey's post-hoc). * p<0.05, ***p<0.001, ****p<0.0001.
[…] The 20-week-old mice were treated per the paradigm in section. VX-765 reverses episodic memory deficits in the J20 mouse.
Anxiety and hyperactivity are monitored in an open-field paradigm, episodic memory with the NOR, spatial memory with the Barnes maze, and short or long term working memory with the Y maze before and after treatments. Repeated measures are acceptable for the NOR, Barnes and Y maze^2-4.
J20 and littermate WT mice (20 wks) were first tested for episodic memory deficits with Novel Object Recognition (NOR) and anxiety and hyperactivity in an open-field paradigm. […] The injections were continued for 2 weeks at 3 injections/week (48 hr intervals between injections and 3 day interval between weeks) and mice retested. […]

J20 mice [3] = test: Synaptophysin immunostaining, preventive treatment of J20 mice
Source text: FIG. 4: Immunostainings of mice hippocampus at 4 months of age (PREVENTION GROUP) with microglial Iba-1, astrocyte GFAP, and synaptic synaptophysin antibodies.
FIG. 27: Synaptophysin immunopositive staining in the hippocampus of mice brains at different times of washout. All sections were immunostained together and automatically with Dako immunostainer.
We directly tested whether pre-symptomatic inhibition of inflammation in a mouse genetic model of Alzheimer disease can stem the progression of memory and behavioral deficits, and Alzheimer disease-like pathology. The J20 amyloid precursor protein Swedish/Indiana mutant mouse was treated at 2 months of age for a one month period with 50 mg/Kg Caspase-1 inhibitor VX-765 (FIG. 22a).

CCO[C@@H]1OC(=O)C[C@@H]1NC(=O)[C@@H]1CCCN1C(=O)[C@@H](NC(=O)c1ccc(N)c(Cl)c1)C(C)(C)C [VX-765, (S)-1-((S)-2-{[1-(4-amino-3-chloro-phenyl)-methanoyl]-amino}-3,3-dimethyl-butanoyl)-pyrrolidine-2-carboxylic acid ((2R,3S)-2-ethoxy-5-oxo-tetrahydro-furan-3-yl)-amide]
GFAP astrogliosis in cortex and hippocampus (J20 mice [1]; after Treatment 3): almost returned to WT levels | GFAP in cortex (J20 mice [1]; densitometry, 12 injections): reduced in VX-765-treated J20 cortex, but the data did not reach statistical significance | NOR behavior (J20 mice [2]; Treatment 1 and 2): normalized NOR behavior only after T2 | NOR behavior (J20 mice [2]; Treatment 3): reappeared after T3 | NOR behavior (J20 mice [2]; washout): washed out | NOR discrimination index (J20 mice [2]; Treatment 1): normalized | NOR discrimination index (J20 mice [2]; Treatment 2): normalized | NOR discrimination index (J20 mice [2]; Treatment 3): returned to normal at T3 | NOR discrimination index (J20 mice [2]; washout): deficits reappeared after WO | NOR deficit (J20 mice [2]; after 3 injections (Treatment 1)): reverted to normal; also recorded: reversed and reached near-normal levels | NOR deficit (J20 mice [2]; after 3 more injections (Treatment 3)): attenuated NOR deficits; also recorded: disappeared again after T3 | NOR deficit (J20 mice [2]; after 4-week washout): NOR deficits reappeared; also recorded: reappeared after the WO period | NOR deficit (J20 mice [2]; after additional 2 weeks of injections (Treatment 2)): continued to perform normally; also recorded: reversed and reached near-normal levels | synaptophysin levels (J20 mice [3]; 4 month old J20 brains): impressive preservation of synaptophysin levels | synaptophysin immunostaining (J20 mice [3]; hippocampus, different times of washout): partly re-established
